Results taken from ChEMBL document CHEMBL4477252, “Optimization of microtubule affinity regulating kinase (MARK) inhibitors with improved physical properties” (Bioorg Med Chem Lett, 2016).
pIC50: −log10 of the molar value.

Assays:
[1] = target: Tyrosine-protein kinase JAK2 (Homo sapiens, UniProt O60674); test: Inhibition of recombinant human GST-tagged cytoplasmic JAK2 (809 to 1153 residues) expressed in baculovirus expression system by Z'-LYTE assay
[2] = target: Protein kinase C theta type (Homo sapiens, UniProt Q04759); test: Inhibition of full-length recombinant human His-tagged PRKCQ expressed in baculovirus expression system by Z'-LYTE assay
[3] = target: Dual specificity tyrosine-phosphorylation-regulated kinase 1A (Homo sapiens, UniProt Q13627); test: Inhibition of full-length recombinant human GST-tagged DYRK1A expressed in baculovirus expression system by Z'-LYTE assay
Sphingosine kinase 1 = Sphingosine kinase 1 (Homo sapiens, UniProt Q9NYA1); test: Inhibition of full-length recombinant human GST-tagged SPHK1 by Z'-LYTE assay
[4] = target: Tyrosine-protein kinase Lck (Homo sapiens, UniProt P06239); test: Inhibition of full-length recombinant human His-tagged LCK expressed in baculovirus expression system by Z'-LYTE assay
[5] = Inhibition of full-length recombinant human GST and His-tagged AMPK alpha2/beta1/gamma1 expressed in baculovirus expression system by LanthaScreen assay
[6] = target: Epidermal growth factor receptor (Homo sapiens, UniProt P00533); test: Inhibition of recombinant human His-tagged EGFR expressed in mammalian expression system by Z'-LYTE assay
[7] = target: Mitogen-activated protein kinase 9 (Homo sapiens, UniProt P45984); test: Inhibition of full-length recombinant human His-tagged MAPK9 expressed in baculovirus expression system by Z'-LYTE assay
[8] = target: MAP/microtubule affinity-regulating kinase 3 (Homo sapiens, UniProt P27448); test: Inhibition of full-length recombinant human GST-tagged MARK3 expressed in baculovirus expression system using biotinylated-Cdc25C peptide substrate measured after 2 hrs by HTRF assay
[9] = target: PI3-kinase p110-delta/p85-alpha (Homo sapiens, UniProt O00329); test: Inhibition of full-length recombinant human His-tagged PIK3P110D/P85A expressed in baculovirus expression system by Adapta assay
[10] = target: Dual specificity protein kinase CLK2 (Homo sapiens, UniProt P49760); test: Inhibition of recombinant human GST-tagged CLK2 catalytic domain expressed in baculovirus expression system by Z'-LYTE assay
[11] = target: Serine/threonine-protein kinase pim-1 (Homo sapiens, UniProt P11309); test: Inhibition of full-length recombinant human His-tagged PIM1 expressed in baculovirus expression system by Z'-LYTE assay
[12] = target: RAF proto-oncogene serine/threonine-protein kinase (Homo sapiens, UniProt P04049, Y340D/Y341D); test: Inhibition of recombinant human GST-tagged RAF1 Y340D/Y341D mutant expressed in baculovirus expression system by Z'-LYTE assay
Ephrin type-B receptor 2 = target: T1, Ephrin type-B receptor 2 (Homo sapiens, UniProt P29323); test: Inhibition of recombinant human GST-tagged cytoplasmic EPHB2 expressed in baculovirus expression system by Z'-LYTE assay
T1 sequence (P29323 whole entry): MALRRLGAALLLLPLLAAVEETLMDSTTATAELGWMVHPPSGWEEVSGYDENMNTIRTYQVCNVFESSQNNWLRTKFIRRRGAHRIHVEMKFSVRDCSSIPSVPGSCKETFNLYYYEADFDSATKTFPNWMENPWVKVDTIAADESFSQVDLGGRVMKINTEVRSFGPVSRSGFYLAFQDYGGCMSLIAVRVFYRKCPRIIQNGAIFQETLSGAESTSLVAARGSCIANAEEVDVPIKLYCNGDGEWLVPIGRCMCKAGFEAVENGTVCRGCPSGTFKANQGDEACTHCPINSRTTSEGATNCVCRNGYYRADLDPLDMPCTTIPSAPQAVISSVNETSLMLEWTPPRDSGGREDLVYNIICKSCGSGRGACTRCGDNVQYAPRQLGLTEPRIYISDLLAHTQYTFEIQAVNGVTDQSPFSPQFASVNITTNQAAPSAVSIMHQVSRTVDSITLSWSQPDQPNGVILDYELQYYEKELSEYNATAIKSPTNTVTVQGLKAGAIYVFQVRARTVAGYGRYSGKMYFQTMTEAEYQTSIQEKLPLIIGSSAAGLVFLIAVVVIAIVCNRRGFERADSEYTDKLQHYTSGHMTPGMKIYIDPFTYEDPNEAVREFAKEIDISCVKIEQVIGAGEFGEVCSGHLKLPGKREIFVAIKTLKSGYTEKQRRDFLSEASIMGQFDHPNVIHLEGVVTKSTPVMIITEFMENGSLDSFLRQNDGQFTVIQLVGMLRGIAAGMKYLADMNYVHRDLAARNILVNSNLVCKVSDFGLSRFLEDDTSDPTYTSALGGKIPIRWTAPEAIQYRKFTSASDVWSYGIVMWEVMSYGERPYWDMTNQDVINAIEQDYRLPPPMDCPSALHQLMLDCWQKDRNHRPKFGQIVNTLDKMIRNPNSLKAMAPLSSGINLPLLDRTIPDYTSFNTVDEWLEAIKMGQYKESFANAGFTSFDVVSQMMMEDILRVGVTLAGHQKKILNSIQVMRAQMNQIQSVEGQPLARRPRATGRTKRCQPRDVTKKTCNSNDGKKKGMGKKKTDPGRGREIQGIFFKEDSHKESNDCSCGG

[13] = target: T2, Cytoplasmic tyrosine-protein kinase BMX (Homo sapiens, UniProt P51813); test: Inhibition of full-length recombinant human His-tagged BMX expressed in baculovirus expression system by Z'-LYTE assay
T2 sequence (P51813 whole entry): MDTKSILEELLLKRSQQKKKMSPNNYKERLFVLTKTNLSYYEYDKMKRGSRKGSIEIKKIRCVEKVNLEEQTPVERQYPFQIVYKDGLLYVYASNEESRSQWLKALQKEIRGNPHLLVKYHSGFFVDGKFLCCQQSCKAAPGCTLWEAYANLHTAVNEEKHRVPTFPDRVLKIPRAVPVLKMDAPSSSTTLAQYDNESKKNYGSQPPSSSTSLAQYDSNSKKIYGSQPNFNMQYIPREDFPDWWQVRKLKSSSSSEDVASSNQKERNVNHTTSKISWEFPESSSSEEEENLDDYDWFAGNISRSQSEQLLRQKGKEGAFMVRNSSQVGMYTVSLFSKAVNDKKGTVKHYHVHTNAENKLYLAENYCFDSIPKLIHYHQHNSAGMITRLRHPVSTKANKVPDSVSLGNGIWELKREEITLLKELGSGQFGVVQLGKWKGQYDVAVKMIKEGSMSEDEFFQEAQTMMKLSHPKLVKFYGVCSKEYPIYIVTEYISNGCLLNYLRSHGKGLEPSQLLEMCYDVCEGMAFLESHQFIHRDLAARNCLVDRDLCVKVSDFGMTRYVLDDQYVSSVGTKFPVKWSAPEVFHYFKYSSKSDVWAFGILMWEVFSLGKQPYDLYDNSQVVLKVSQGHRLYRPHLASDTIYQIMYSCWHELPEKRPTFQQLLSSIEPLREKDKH

[14] = target: RAC-beta serine/threonine-protein kinase (Homo sapiens, UniProt P31751); test: Inhibition of full-length recombinant human His-tagged AKT2 expressed in baculovirus expression system by Z'-LYTE assay
Sequence of RAC-beta serine/threonine-protein kinase (P31751 whole entry): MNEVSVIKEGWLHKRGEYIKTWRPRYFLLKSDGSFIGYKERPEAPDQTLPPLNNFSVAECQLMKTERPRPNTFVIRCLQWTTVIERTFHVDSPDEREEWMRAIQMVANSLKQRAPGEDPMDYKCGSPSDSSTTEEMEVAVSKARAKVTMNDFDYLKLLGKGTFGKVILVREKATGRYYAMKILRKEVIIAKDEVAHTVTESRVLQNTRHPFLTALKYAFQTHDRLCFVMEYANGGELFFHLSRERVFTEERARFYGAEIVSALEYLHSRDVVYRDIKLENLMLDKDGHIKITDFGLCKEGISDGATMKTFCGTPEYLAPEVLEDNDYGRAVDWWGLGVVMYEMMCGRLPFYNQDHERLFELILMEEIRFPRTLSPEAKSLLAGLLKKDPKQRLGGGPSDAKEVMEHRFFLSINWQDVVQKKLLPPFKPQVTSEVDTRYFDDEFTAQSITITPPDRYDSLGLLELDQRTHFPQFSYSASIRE

Sequence of Sphingosine kinase 1 (Q9NYA1 whole entry): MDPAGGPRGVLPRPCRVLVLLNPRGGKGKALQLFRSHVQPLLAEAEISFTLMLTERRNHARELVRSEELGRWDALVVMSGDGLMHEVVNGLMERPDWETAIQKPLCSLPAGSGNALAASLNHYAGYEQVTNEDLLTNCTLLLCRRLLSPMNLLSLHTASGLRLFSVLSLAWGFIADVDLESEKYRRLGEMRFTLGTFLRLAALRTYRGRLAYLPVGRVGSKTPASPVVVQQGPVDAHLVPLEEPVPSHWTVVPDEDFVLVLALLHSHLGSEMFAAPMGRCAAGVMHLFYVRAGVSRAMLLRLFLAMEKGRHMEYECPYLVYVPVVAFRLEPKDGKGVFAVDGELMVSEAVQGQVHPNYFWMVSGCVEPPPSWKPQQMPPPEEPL
Sequence of Serine/threonine-protein kinase pim-1 (P11309 whole entry): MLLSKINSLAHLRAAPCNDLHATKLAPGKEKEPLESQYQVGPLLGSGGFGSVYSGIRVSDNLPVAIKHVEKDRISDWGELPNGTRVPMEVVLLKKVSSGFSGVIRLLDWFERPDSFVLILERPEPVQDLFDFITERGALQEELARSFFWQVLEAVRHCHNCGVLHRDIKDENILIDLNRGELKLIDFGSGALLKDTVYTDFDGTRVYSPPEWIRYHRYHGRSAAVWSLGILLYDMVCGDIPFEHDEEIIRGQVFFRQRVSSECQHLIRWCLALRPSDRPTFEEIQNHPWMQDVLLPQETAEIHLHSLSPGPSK
Sequence of RAF proto-oncogene serine/threonine-protein kinase (P04049 whole entry Y340D/Y341D): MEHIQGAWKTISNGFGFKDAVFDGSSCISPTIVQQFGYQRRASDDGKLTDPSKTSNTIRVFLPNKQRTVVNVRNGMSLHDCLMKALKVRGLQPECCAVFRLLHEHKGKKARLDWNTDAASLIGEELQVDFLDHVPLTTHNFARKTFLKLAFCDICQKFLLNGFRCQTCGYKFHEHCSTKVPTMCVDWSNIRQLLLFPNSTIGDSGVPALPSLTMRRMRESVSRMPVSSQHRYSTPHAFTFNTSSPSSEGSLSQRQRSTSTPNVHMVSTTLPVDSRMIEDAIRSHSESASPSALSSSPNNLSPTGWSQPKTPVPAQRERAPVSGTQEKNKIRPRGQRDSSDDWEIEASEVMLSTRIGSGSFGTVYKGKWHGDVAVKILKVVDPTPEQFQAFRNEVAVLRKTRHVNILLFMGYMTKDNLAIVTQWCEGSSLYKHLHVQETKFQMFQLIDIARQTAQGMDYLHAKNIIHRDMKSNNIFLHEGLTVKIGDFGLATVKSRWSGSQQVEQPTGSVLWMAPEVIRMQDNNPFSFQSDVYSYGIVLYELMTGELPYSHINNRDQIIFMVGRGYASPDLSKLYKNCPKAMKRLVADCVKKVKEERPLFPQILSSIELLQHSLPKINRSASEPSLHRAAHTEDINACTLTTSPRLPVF
Sequence of PI3-kinase p110-delta/p85-alpha (P27986 whole entry, the tested form may be a part): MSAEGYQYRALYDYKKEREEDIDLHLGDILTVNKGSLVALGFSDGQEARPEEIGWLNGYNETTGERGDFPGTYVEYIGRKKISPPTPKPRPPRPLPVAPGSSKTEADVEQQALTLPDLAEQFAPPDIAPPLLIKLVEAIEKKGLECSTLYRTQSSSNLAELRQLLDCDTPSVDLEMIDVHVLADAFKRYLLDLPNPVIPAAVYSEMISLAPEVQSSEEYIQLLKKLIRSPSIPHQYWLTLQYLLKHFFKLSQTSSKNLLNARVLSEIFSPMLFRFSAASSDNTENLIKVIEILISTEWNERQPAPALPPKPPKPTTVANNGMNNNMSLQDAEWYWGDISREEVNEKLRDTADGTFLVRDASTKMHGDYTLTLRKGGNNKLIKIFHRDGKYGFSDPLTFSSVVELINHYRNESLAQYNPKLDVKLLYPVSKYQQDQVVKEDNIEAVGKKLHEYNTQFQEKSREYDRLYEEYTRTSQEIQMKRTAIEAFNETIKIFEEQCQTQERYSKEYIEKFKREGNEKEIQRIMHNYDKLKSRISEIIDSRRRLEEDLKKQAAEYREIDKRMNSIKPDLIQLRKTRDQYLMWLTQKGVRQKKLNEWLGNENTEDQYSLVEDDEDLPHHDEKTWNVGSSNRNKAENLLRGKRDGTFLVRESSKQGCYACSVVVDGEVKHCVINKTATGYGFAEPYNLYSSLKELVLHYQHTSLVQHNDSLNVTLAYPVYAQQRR
Sequence of PI3-kinase p110-delta/p85-alpha (O00329 whole entry, the tested form may be a part): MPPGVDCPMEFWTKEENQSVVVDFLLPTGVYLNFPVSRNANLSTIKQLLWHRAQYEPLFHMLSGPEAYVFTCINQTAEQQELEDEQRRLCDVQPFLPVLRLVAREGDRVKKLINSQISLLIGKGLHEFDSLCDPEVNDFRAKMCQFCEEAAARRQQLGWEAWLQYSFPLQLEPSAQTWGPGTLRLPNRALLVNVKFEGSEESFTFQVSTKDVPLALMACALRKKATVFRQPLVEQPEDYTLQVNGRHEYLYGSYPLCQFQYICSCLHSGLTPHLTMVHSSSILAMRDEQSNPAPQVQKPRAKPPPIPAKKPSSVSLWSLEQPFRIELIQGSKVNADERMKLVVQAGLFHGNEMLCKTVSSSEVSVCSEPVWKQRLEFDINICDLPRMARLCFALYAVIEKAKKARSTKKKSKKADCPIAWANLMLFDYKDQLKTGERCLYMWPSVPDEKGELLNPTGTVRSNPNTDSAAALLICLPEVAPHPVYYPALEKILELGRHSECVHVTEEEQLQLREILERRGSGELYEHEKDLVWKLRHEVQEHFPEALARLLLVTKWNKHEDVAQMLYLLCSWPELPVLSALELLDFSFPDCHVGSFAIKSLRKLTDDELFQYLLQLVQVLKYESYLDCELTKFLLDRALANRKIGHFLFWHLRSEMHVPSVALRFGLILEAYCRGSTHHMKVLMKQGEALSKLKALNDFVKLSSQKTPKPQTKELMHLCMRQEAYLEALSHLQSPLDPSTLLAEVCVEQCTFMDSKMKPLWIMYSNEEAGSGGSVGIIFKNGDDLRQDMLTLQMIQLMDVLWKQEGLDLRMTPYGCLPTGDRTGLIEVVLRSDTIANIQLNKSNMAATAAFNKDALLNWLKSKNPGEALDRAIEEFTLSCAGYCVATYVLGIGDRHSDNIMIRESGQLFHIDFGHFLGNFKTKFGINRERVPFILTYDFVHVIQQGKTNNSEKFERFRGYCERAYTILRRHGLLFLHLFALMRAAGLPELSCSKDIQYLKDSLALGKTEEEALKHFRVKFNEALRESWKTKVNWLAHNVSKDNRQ
Sequence of Protein kinase C theta type (Q04759 whole entry): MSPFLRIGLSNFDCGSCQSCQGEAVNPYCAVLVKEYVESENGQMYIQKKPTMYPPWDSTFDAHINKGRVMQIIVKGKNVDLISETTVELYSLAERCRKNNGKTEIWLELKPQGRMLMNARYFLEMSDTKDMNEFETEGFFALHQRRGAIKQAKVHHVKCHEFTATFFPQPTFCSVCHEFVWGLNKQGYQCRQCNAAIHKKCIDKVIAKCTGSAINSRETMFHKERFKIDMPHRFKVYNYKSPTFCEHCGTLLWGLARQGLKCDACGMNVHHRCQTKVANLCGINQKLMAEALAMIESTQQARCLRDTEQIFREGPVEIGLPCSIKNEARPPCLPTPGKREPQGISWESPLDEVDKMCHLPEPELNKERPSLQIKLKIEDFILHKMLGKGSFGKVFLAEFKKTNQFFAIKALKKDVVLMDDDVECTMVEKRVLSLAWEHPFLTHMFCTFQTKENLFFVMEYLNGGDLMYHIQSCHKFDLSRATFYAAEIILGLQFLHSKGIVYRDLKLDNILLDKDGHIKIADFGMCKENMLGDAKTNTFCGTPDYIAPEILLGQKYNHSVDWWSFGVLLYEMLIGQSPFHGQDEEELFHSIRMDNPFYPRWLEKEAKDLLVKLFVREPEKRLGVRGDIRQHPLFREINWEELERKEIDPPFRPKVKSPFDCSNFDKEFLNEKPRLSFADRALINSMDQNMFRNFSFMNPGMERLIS
Sequence of Dual specificity protein kinase CLK2 (P49760 whole entry, the tested form may be a part): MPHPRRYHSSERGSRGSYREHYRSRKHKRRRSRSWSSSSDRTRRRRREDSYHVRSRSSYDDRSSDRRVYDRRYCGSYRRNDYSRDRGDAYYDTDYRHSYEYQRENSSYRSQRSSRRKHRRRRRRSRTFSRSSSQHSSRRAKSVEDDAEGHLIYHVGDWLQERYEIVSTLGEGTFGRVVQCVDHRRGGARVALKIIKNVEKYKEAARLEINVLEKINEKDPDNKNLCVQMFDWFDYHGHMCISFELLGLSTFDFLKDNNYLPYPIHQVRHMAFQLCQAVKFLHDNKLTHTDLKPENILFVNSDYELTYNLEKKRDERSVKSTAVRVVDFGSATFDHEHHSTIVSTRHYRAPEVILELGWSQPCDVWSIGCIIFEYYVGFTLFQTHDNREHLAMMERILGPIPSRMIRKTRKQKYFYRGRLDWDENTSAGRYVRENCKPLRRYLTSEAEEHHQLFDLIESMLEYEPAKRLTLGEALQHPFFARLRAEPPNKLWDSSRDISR

SMILES | pIC50 [1] | pIC50 [2] | pIC50 [3] | pIC50 (Sphingosine kinase 1) | pIC50 [4] | pIC50 [5] | pIC50 [6] | pIC50 [7] | pIC50 [8] | pIC50 [9] | pIC50 [10] | pIC50 [11] | pIC50 [12] | pIC50 (Ephrin type-B receptor 2) | pIC50 [13] | pIC50 [14]
Cn1cc(-c2cnc3c(-c4csc(C(=O)NCC(F)(F)F)c4)cnn3c2)cn1 | 5.92 | < 4.00 | 7.96 | < 4.00 | 7.43 | 7.17 | 4.55 | 5.77 | 8.22 | 5.82 | > 8.00 | 5.00 | 6.25 | 7.44 | 6.57 | < 4.00
Cc1sc(C(=O)N[C@@H]2[C@H](N)CCCC2(F)F)cc1-c1cnn2cc(Cl)cnc12 | 5.36 | 5.06 | 6.89 | < 4.00 | 5.30 | 6.54 | < 4.00 | 5.36 | 8.30 | < 4.00 | 6.96 | 5.80 | 6.02 | 5.42 | 5.01 | 5.60
O=C(NCC(F)(F)F)c1cc(-c2cnn3cc(-c4ccc(OCCN5CCCCC5)cc4)cnc23)cs1 | 5.62 | 5.18 | > 8.00 | 4.49 | 7.72 | 7.60 | 5.96 | 6.07 | 9.00 | 4.26 | > 8.00 | 6.23 | 6.20 | > 8.00 | 6.39 | 4.64
Cn1cc(-c2cnc3c(-c4csc(C(=O)N[C@@H]5CCCC[C@@H]5N)c4)cnn3c2)cn1 (racemic) | 7.19 | 6.57 | 8.49 | < 5.00 | 8.41 |  | 6.47 | 6.19 | ≥ 9.30 | 5.48 | 7.85 | 5.55 | 7.32 | 8.54 | 8.46 | 6.37
